{
  "source": "patent US20060166319A1",
  "about": "(priority 2004, published 2006)",
  "key": {"PylS-His6 [1]": {"target": "T1, PylS-His6 (Methanosarcina barkeri, UniProt Q6WRH6)", "T1 construct": "made in house; host or cells: E. coli BL21 (DE3)", "T1 sequence (Q6WRH6 whole entry)": "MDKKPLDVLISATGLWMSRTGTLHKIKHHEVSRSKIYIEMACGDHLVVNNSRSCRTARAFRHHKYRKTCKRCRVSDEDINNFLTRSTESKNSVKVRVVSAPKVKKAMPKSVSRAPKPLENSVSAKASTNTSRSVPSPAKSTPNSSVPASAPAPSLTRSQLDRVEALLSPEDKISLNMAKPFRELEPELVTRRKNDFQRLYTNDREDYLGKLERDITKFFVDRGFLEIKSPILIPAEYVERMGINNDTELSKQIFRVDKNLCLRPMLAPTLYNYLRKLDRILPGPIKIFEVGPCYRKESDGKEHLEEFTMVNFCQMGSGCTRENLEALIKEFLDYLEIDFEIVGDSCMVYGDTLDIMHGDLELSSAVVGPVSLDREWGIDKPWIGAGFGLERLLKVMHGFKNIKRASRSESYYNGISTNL", "experiment": "Aminoacylation of tRNACUA in acid-urea gels (gel-shift, northern blot)", "type": "biochemical", "settings": "for aminoacylation of tRNA^lys in the M. acetivorans tRNA pool: tRNA^lys instead of tRNACUA", "description": "Recombinant PylS-His6 was purified by Ni affinity chromatography from lysates of Escherichia coli expressing the recombinant Methanosarcina barkeri pylS gene modified so as to add a carboxy-terminal hexahistidine tag to the gene product. The tRNA pool extracted from Methanosarcina acetivorans or tRNACUA transcribed in vitro was used in charging experiments. Charged and uncharged tRNA species were separated by electrophoresis in a denaturing acid-urea polyacrylamide gel and tRNACUA was specifically detected by northern blotting with an oligonucleotide probe.\nThe reaction was terminated after 5-30 min at 37° C. with an equal volume of 0.3 M sodium acetate, 8 M urea pH 5.0. Charged and uncharged tRNA were separated by acid-urea acrylamide gel electrophoresis, blotted to nitrocellulose and probed with a 5μ ^32P-end-labelled, 72-base oligonucleotide complementary to tRNA^CUA. Radioactivity was analysed with a STORM Phosphorimager (Amersham Biosciences).\n(§1) Aminoacylation assay in acid-urea gels. […] Following incubation at 37° C. for 5 to 30 minutes, the reaction was terminated by addition of an equal volume of 2× loading dye (0.3 M sodium acetate, 8 M urea, pH 5.0) and charged and uncharged tRNA species analysed by acid-urea acrylamide gel electrophoresis following the methods outlined in Jester et al. Samples were electrophoresed in 14% polyacrylamide gels buffered with a 0.3 M sodium acetate-7 M urea solution, pH 5.0, at 50 volts and 4° C. for 24 hours. The same buffer without urea was used in the electrode chambers, and was replaced with fresh buffer every 6-8 hours. Finished gels were transblotted for 2 hours at 40 volts in 4° C. in a blotting solution of 10 mM Tris-acetate, 5 mM sodium acetate, and 0.5 mM EDTA, pH 8.0. The blot was then cross-linked by ultraviolet radiation (15000 μJ/cm2 per side) then prehybrized in 0.25 M sodium phosphate buffer, pH 7.2, and 5.7% SDS for at least 30 minutes. In order to detect charged and uncharged tRNACUA a 72 base oligonucleotide complementary to full length of tRNACUA was labeled with γ-^32P ATP and polynucleotide kinase. The probe was hybridized with the blot overnight at room temperature, then agitated at 22° C. for 5 minute in 10 mM sodium citrate, 150 mM NaCl, 1% SDS, pH 7.0, then agitated with two changes of 5 mM sodium citrate, 75 mM sodium chloride, 1% SDS, pH 7.0, for 5 minutes each. Radioactivity on the blot was imaged and analyzed using a STORM Phosphorimager (Amersham Biosciences)."}, "His6-PylS": {"target": "T2, His6-PylS (Methanosarcina barkeri, UniProt Q6WRH6)", "T2 construct": "made in house; host or cells: E. coli (inferred from the control with untransformed E. coli)", "T2 sequence (Q6WRH6 whole entry)": "as above", "experiment": "Gel-shift aminoacylation assay with N-terminally His-tagged PylS", "type": "biochemical", "experimental": "as §1, with “The probe was hybridized with the blot overnight at room temperature, then agitated at 22° C. for 5 minute in 10 mM sodium citrate, 150 mM NaCl, 1% SDS, pH 7.0, then agitated with two changes of 5 mM sodium citrate, 75 mM sodium chloride, 1% SDS, pH 7.0, for 5 minutes each.” left out"}, "PylS-His6 [2]": {"target": "T1, PylS-His6", "experiment": "Pyrrolysine dependent pyrophosphate:ATP exchange", "type": "biochemical", "design": "apparent Vmax: unit not given here", "experimental": "As a prerequisite of tRNA aminoacylation, an aminoacyl-adenylate and pyrophosphate are formed from the amino acid and ATP by an aminoacyl-tRNA synthetase. This reversible activation reaction can be assayed by the isotopic exchange of ^32P-pyrophosphate into ATP dependent on the addition of the cognate amino acid for the aminoacyl-tRNA synthetase in question.\nThe pyrophosphate exchange reaction was essentially performed following the method of Cole and Schimmel. All reactions were performed in duplicate at 37° C. The 100 to 200 μl reactions contained (unless noted) 0.3 to 1 μM PylSHis6. […] The specific activity of the radiolabel was adjusted from 4 to 10 dpm/pmol). The concentration of protein was 0.3 to 1 μM. At specific times, 25 μl aliquots were removed and quenched in 500 μl of a stop solution containing 1.6% (w/v) activated acid-washed charcoal (Sigma Chemical Co., St. Louis, Mo.), 80 mM sodium tetrapyrophosphate, and 3.5% (v/v) perchloric acid. Samples were filtered through Whatman GF/C glass-fiber filters and then the filter was washed three times with 5 ml of 40 mM sodium tetrasodium pyrophosphate solution containing 1.7% perchloric acid (v/v) and once with 5 ml 100% ethanol. Filters were dried at 80° C. for 5 minutes then placed in 20 ml scintillation vials containing 10 ml of Ultima Gold F scintillation cocktail (PerkinElmer), shaken once, and counted in a liquid scintillation analyzer. Identical reactions without amino acid, ATP, or enzyme were also set up as negative controls in duplicate. […] One substrate was kept constant at a concentration higher than its respective apparent Km value."}, "[3]": {"test_system": "E. coli BL21 (DE3) expressing pylT, pylS and mtmB1", "experiment": "Pyrrolysine-dependent amber suppression (mtmB1 UAG readthrough, anti-MtmB immunoblot)", "type": "cell-based", "settings": "strain expressing pylT, 1 mM amino acid, 4 h induction", "source_text": "As a reporter of UAG translation as a sense codon, we introduced the mtmB1 gene into E. coli BL21 (DE3). […] Plasmids were constructed bearing combinations of mtmB1, pylS and/or pylT under the control of the T7 promoter, and transformed into E. coli. […] Total cellular proteins from each strain were then separated by SDS-polyacrylamide-gel electrophoresis and mtmB1 gene products were detected by subsequent immunoblotting with polyclonal antibody specific for purified M. barkeri MtmB.\nTo test for amber suppression, overnight cultures were grown in Luria-Bertani broth (3 ml) with 100 μg ml^−1 ampicillin. Subsequently, 200 μl was inoculated into 1 ml fresh medium and grown to a D600 of 0.6. […] The mtmB1 gene products in equivalent amounts of lysates were then analysed by immunoblotting of a SDS 12.5% polyacrylamide gel with affinity-purified rabbit anti-MtmB antibody^6. The Rainbow Molecular Weight markers (Amersham Biosciences) were used.\nTo test for amber suppression, overnight cultures of a strain bearing one of the plasmids were grown in LB broth (3 mL) with 100 ug/ml final ampicillin. Subsequently, 200 μl of each culture was inoculated into 1 ml of fresh LB medium with ampicillin, and grown to an A600 of approximately 0.6. […]"}, "[4]": {"test_system": "E. coli BW25141(DE3) transformed with pDLGUS", "experiment": "beta-glucuronidase activity from uidA gene with UAG codon replacing AAA286", "type": "cell-based", "description": "In order to avoid interference by the residue uidA gene, we employed a strain with most of uidA deleted, E. coli BW25141(DE3). This strain was transformed with pDLGUS, a variant of the pEC03 plasmid in which the mtmB1 gene was removed and the uidA gene introduced in its place."}, "[5]": {"experiment": "Stability studies of compound 8 to NaOH, LiOH and TFA (TLC)", "type": "physicochemical", "settings": "rt", "experimental": "Stability Studies of Compound (8) to NaOH. NaOH (6 M, 20 μL, 0.12 mmol) was added to a solution of compound 8 (0.15 M, 100 μL, 0.015 mmol). The resulting mixture was allowed to react at rt over 3 days, during which the degradation of compound 8 was monitored by a ninhydrin TLC assay (CHCl3-MeOH—NH4OH(aq)=2:2:1).\nStability Studies of Compound (8) to LiOH. Compound 8 (21.9 mg, 84 μmol) was dissolved in water (2 mL) and LiOH.H2O (84.5 mg, 2.0 mmol) was added. This mixture was allowed to react at rt. While initially only starting material was observed by TLC (MeOH-EtOAc=4:1, Rf=0.26), after 24 h two new bands (Rf=0.10, 0.02) appeared. After 5 days, the solution was evaporated to dryness at rt, redissolved in MeOH (0.5 mL), and purified on chromatography silica gel. […] The other new band appears to be a mixture of species based on its NMR and MS data.\nStability Studies of Compound (8) to TFA. Compound 8 (21.7 mg, 0.083 mmol) was dissolved in MeOH (2 mL) and TFA (200 μL) was added. After 1 h, one new band (MeOH-EtOAc=2:1; Rf=0.22) was observed by TLC. The mixture was allowed to react to completion for 2 days at rt. The resulting mixture was evaporated to dryness, dissolved in MeOH (0.5 mL), and subjected to chromatography on silica gel. […] The peak for the C2 imine proton is absent, and the peak for the C5 proton is either absent or shifted."}, "NMR H/D exchange studies": {"experiment": "NMR H/D exchange studies", "type": "physicochemical", "settings": "rt", "experimental": "Compound 7 (˜4 mg, ˜10 μmol) was dissolved in CD3OD (0.75 mL), and D2O (2 drops) was added. The reaction mixture was kept at rt and monitored by NMR (400 MHz). […] NaOD (30% w/w in D2O, 2 drops) was then added, and the solution monitored by NMR. […] After 25 h, the C5 proton peak completely disappeared.\nTo rule out the possibility that the loss of the C5 proton peak was due to decomposition, the resulting mixture was evaporated at rt under reduce pressure, and the residue was redissolved in CH3OH and allowed to stir for 1 day. The mixture was then evaporated to dryness in vacuo, and redissolved in CD3OD. The NMR spectrum was quickly taken, and the C5 proton peak was again observed. As before, the C5 proton peak slowly disappeared over a 1-day period.\nTo evaluate the importance of the imine bond on the acidity of the C5 proton, proline was dissolved in 0.75 mL CD3OD and 0.20 mL D2O and treated with […]."}},
  "data": [
    {"smiles": "NCCCC[C@H](N)C(=O)O", "note": "[lysine, reference compound]", "values": [
      {"measurement": "formation of charged tRNACUA species", "setting": "PylS-His6 [1]; 20 canonical amino acids each at 50 μM, or only 50 μM lysine, no pyrrolysine", "value": "not formed"},
      {"measurement": "aminoacylation of tRNA^lys in the M. acetivorans tRNA pool", "setting": "PylS-His6 [1]", "value": "does not aminoacylate"},
      {"measurement": "lysyl- or pyrrolysyl-tRNA synthetase activity", "setting": "His6-PylS", "value": "no lysyl-tRNA synthetase activity was detectable"},
      {"measurement": "isotopic exchange into ATP above background", "setting": "PylS-His6 [2]; incubation as long as 30 min, canonical 20 amino acids each at 100 μM, or 1 mM lysine", "value": "no detectable isotopic exchange"},
      {"measurement": "UAG readthrough: expression of 50-kDa MtmB", "setting": "[3]", "value": "could not be replaced"}
    ]},
    {"smiles": "C[C@@H]1CC=N[C@H]1C(=O)NCCCC[C@H](N)C(=O)O", "note": "[pyrrolysine, lysine in amide linkage with (4R,5R)-4-methyl-pyrroline-5-carboxylate]", "values": [
      {"measurement": "maximal conversion of deacylated tRNACUA to charged species", "setting": "PylS-His6 [1]; deacylated M. acetivorans cellular tRNA pool, incubation with pyrrolysine, ATP and PylS-His6", "value": 50, "unit": "%"},
      {"measurement": "maximum of tRNACUA transcribed in vitro aminoacylated", "setting": "PylS-His6 [1]; in vitro transcribed tRNACUA, synthetic pyrrolysine, ATP-dependent", "value": 43, "unit": "%"},
      {"measurement": "aminoacylation of tRNA^lys in the M. acetivorans tRNA pool", "setting": "PylS-His6 [1]", "value": "does not aminoacylate"},
      {"measurement": "lysyl- or pyrrolysyl-tRNA synthetase activity", "setting": "His6-PylS", "value": "does have pyrrolysyl-tRNA synthetase activity"},
      {"measurement": "Km", "setting": "PylS-His6 [2]; 37° C., pH 7.2, other substrate held constant, read-out: apparent Km", "value": 53, "unit": "µM"},
      {"measurement": "apparent Vmax", "setting": "PylS-His6 [2]; exchange reaction, 37° C.", "value": 120},
      {"measurement": "UAG readthrough: expression of 50-kDa MtmB", "setting": "[3]", "value": "large amounts of 50-kDa MtmB"},
      {"measurement": "increase of beta-glucuronidase activity", "setting": "[4]; 1 mM synthetic pyrrolysine versus absence of pyrrolysine", "value": "approximately 100 fold"},
      {"measurement": "beta-glucuronidase activity", "setting": "[4]; induced with IPTG in the presence of 1 mM synthetic pyrrolysine", "value": "4.", "unit": "umol/min·mg protein"}
    ]},
    {"smiles": "C[C@@H]1CC=N[C@H]1C(=O)NCCCC[C@H](N)C(=O)[O-].[Li+]", "note": "[Compound 8, L-Pyrrolysine lithium salt]", "values": [
      {"measurement": "degradation in LiOH observed by TLC", "setting": "[5]; LiOH in water, after 24 h", "value": "two new bands"},
      {"measurement": "degradation in NaOH monitored by ninhydrin TLC", "setting": "[5]; NaOH 6 M 20 μL added to 0.15 M solution, over 3 days", "value": "One new band"},
      {"measurement": "degradation in TFA observed by TLC", "setting": "[5]; TFA in MeOH, after 1 h", "value": "one new band"}
    ]},
    {"smiles": "COC(=O)[C@H](CCCCNC(=O)[C@@H]1N=CC[C@H]1C)NC(=O)C(F)(F)F", "note": "[Compound 7, Nα-Trifluoroacetyl-L-pyrrolysine methyl ester]", "values": [
      {"measurement": "change in NMR spectrum", "setting": "NMR H/D exchange studies; CD3OD with D2O, 3-day period, no base", "value": "No change was observed"},
      {"measurement": "time until C5 proton peak completely disappeared (H/D exchange)", "setting": "NMR H/D exchange studies; CD3OD/D2O with NaOD", "value": 25, "unit": "h"}
    ]}
  ]
}
